Like-named read-outs stand apart in the source and are kept apart here.
What was measured:
PDGF-R = PDGF-R Assay (cellular ELISA, U1242 cells); assay type: cell-based; design: concentration or dose not given beside the values
Outline: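 U1242 cells seeded in 0.5% serum, serum-starved, then exposed to compound for 2 hr at 37°C before 5–10 min ligand stimulation and lysis in HNTG. Lysate captured on receptor-antibody-coated plates; phosphotyrosine detected with polyclonal anti-pTyr, goat anti-rabbit IgG and ABTS/H2O2, A410 (ref 630 nm), versus untreated cells.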

EGFR = target: T1, EGFR (Homo sapiens, UniProt P00533); assay: Biochemical EGFR Assay; design: concentration or dose not given beside the values
T1 construct: endogenous in cells; host or cells: A431 cells (lysate, captured with SUMO1 anti-EGFR antibody)
T1 sequence (P00533 25-1210): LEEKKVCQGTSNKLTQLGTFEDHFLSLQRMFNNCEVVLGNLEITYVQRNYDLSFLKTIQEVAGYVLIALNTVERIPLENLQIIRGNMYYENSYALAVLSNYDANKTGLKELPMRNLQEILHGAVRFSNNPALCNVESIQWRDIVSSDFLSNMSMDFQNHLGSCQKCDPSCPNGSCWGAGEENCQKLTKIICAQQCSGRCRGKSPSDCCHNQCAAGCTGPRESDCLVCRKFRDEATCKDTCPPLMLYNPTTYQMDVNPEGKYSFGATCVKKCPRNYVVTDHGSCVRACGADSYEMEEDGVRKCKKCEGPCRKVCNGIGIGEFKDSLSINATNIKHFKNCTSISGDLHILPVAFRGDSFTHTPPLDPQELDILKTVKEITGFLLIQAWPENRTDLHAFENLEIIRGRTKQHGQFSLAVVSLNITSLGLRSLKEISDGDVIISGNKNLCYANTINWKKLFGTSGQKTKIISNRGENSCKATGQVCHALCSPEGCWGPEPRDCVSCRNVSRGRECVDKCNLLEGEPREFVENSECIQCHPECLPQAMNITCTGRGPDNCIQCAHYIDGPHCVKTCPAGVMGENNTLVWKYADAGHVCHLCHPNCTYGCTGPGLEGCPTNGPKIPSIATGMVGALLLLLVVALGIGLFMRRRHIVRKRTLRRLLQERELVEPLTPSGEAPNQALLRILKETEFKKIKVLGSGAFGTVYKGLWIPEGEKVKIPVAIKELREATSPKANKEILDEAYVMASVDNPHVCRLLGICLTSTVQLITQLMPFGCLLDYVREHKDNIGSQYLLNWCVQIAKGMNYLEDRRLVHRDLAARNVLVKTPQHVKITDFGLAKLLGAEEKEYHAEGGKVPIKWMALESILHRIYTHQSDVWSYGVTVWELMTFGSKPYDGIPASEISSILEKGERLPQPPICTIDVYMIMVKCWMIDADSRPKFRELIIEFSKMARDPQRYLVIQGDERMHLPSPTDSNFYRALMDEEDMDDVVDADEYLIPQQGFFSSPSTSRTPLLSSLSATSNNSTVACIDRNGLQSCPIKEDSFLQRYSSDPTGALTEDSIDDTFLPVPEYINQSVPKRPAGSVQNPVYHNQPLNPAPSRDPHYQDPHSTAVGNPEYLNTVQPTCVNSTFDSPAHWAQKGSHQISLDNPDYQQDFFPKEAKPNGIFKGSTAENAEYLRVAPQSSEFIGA
Outline: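 EGFR from A431 lysate was captured on anti-EGFR-coated wells and preincubated 30 min with compound (diluted 1:10 in TBS) at room temperature. After ATP/MnCl2 phosphorylation for 5 min, the reaction was stopped with EDTA. Phosphotyrosine was detected by ELISA (anti-phosphotyrosine, peroxidase conjugate, ABTS) at 410 nm.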

Cc1c(Br)cc(Br)c2c1C(=Cc1ccccc1[N+](=O)[O-])C(=O)N2 [10726/H02]
PDGF Kinase % Inhibition (P.119) (PDGF-R): −8.3% | Biochem EGFR % Inhibition (P.167) (EGFR): −11.2%

CCOC(=O)c1[nH]c(C=C2C(=O)Nc3c(Br)cc(Br)c(C)c32)c(C(=O)OC)c1C [10726/H03]
PDGF Kinase % Inhibition (P.119) (PDGF-R): −17.8% | Biochem EGFR % Inhibition (P.167) (EGFR): 14.0%

Cc1cc(C=C2C(=O)Nc3c(Br)cc(Br)c(C)c32)cc(C(C)(C)C)c1O [10726/H04]
PDGF Kinase % Inhibition (P.119) (PDGF-R): 13.2% | Biochem EGFR % Inhibition (P.167) (EGFR): 75.5%

COc1cccc(C=C2C(=O)Nc3ccc(S(=O)(=O)N4CCOCC4)cc32)c1 [10736/F10]
PDGF Kinase % Inhibition (P.119) (PDGF-R): 11.0% | Biochem EGFR % Inhibition (P.167) (EGFR): −0.7%

O=C1Nc2ccc(S(=O)(=O)N3CCOCC3)cc2C1=Cc1ccccc1Cl [10736/F11]
PDGF Kinase % Inhibition (P.119) (PDGF-R): 4.4% | Biochem EGFR % Inhibition (P.167) (EGFR): −23.4%

O=C1Nc2ccc(CCCl)cc2C1=Cc1ccc(Cl)cc1 [10736/G02]
PDGF Kinase % Inhibition (P.119) (PDGF-R): −5.2% | Biochem EGFR % Inhibition (P.167) (EGFR): −4.5%

O=C1Nc2ccc(CCCl)cc2C1=Cc1ccccc1C(F)(F)F [10736/G03]
PDGF Kinase % Inhibition (P.119) (PDGF-R): 1.4% | Biochem EGFR % Inhibition (P.167) (EGFR): 23.0%

Cc1cccc(C=C2C(=O)Nc3ccc(CCCl)cc32)c1 [10736/G04]
PDGF Kinase % Inhibition (P.119) (PDGF-R): −8.3% | Biochem EGFR % Inhibition (P.167) (EGFR): −35.0%

O=C1Nc2ccc(CCCl)cc2C1=Cc1cccc(F)c1 [10736/G07]
PDGF Kinase % Inhibition (P.119) (PDGF-R; protocol P.119): −14.8% | Biochem EGFR % Inhibition (P.167) (EGFR; protocol P.167): −74.8%

O=C1Nc2ccc(CCCl)cc2C1=Cc1ccccc1F [10736/G08]
PDGF Kinase % Inhibition (P.119) (PDGF-R; protocol P.119): −9.2% | Biochem EGFR % Inhibition (P.167) (EGFR; protocol P.167): −9.2%

CCc1ccc(C=C2C(=O)Nc3ccc(CCCl)cc32)cc1 [10736/G09]
PDGF Kinase % Inhibition (P.119) (PDGF-R; protocol P.119): −3.5% | Biochem EGFR % Inhibition (P.167) (EGFR; protocol P.167): 12.4%

COc1cccc(C=C2C(=O)Nc3ccc(CCCl)cc32)c1 [10736/G10]
PDGF Kinase % Inhibition (P.119) (PDGF-R; protocol P.119): −7.4% | Biochem EGFR % Inhibition (P.167) (EGFR; protocol P.167): −4.5%

O=C1Nc2ccc(CCCl)cc2C1=Cc1ccccc1Cl [10736/G11]
PDGF Kinase % Inhibition (P.119) (PDGF-R; protocol P.119): −1.7% | Biochem EGFR % Inhibition (P.167) (EGFR; protocol P.167): −6.4%

Cc1c(Br)cc(Br)c2c1C(=Cc1ccc(Cl)cc1)C(=O)N2 [10736/H02]
PDGF Kinase % Inhibition (P.119) (PDGF-R; protocol P.119): −6.1% | Biochem EGFR % Inhibition (P.167) (EGFR; protocol P.167): −32.0%

Cc1c(Br)cc(Br)c2c1C(=Cc1ccccc1C(F)(F)F)C(=O)N2 [10736/H03]
PDGF Kinase % Inhibition (P.119) (PDGF-R; protocol P.119): 2.2% | Biochem EGFR % Inhibition (P.167) (EGFR; protocol P.167): −1.4%

Cc1cccc(C=C2C(=O)Nc3c(Br)cc(Br)c(C)c32)c1 [10736/H04]
PDGF Kinase % Inhibition (P.119) (PDGF-R; protocol P.119): −10.9% | Biochem EGFR % Inhibition (P.167) (EGFR; protocol P.167): −4.3%

Cc1ccc(C=C2C(=O)Nc3c(Br)cc(Br)c(C)c32)cc1 [10736/H05]
PDGF Kinase % Inhibition (P.119) (PDGF-R; protocol P.119): −10.0% | Biochem EGFR % Inhibition (P.167) (EGFR; protocol P.167): −28.9%

Cc1c(Br)cc(Br)c2c1C(=Cc1cccc(Cl)c1)C(=O)N2 [10736/H06]
PDGF Kinase % Inhibition (P.119) (PDGF-R; protocol P.119): 9.3% | Biochem EGFR % Inhibition (P.167) (EGFR; protocol P.167): 12.6%
